Test system: p-ERK
Experiment: Cell p-ERK assay (HTRF, Advance ERK phospho-T202/Y204 kit) in NCI-H441 cells
Assay type: cell-based
Details: Homo sapiens, NCI-H441, 3 h, NCI-H441, human non-small cell lung cancer cell strain, KRAS G12V mutation; 3 h compound incubation
Description: AsPC-1 cells were purchased from ATCC, Cat. No. CRL-1682; NCI-H441 cells were purchased from ATCC, Cat. No. HTB-174; RPMI-1640 medium was purchased from Gibco, Cat. No. 11875-093; FBS was purchased from Gibco, Cat. No. 10099-141C; penicillin/streptomycin double-antibiotic solution (PS) was purchased from Gibco, Cat. No. 15140-122; trypsin (containing EDTA) was purchased from Gibco, Cat. No. 25200-072; DMSO was purchased from VWRAMRESCO, Cat. No. 0231-500ML; 96-well cell culture plates were purchased from Corning, Cat. No. 3599; white-bottomed, opaque 96-well plates were purchased from Cisbio, Cat. No. 66PL96025; Advance ERK phospho-T202/Y204 kit was purchased from Cisbio, Cat. No. 64AERPEH; cell counter was purchased from CHEMOMETEC, model: NC-200; microplate reader was purchased from PerkinElmer, model: EnVision.
AsPC-1, a human pancreatic cancer cell strain endogenously containing a KRAS^G12D mutation, was cultured in a complete medium containing RPMI-1640 + 10% FBS + 1% PS. NCI-H441, a human non-small cell lung cancer cell strain endogenously containing a KRAS^G12V mutation, was cultured in a complete medium containing RPMI-1640 + 10% FBS + 1% PS.
The cells were digested with trypsin (containing EDTA), collected in their corresponding complete media, and counted. The density of the cell suspensions was adjusted with their corresponding complete media, and AsPC-1 cells (10000 cells/well) or NCI-H441 cells (20000 cells/well) were seeded into a 96-well cell culture plate, with the volume of the medium in each well being 80 µL. The cell culture plate was incubated in an incubator at 37 °C with 5% CO2 overnight. A series of 3.16-fold gradient dilutions of a 1000× compound stock solution were prepared with DMSO, and then diluted 200-fold with the complete medium described above to give 5× compound stock solutions. On the day after cell seeding, 20 µL of the 5× compound stock solution was added to each cell culture well. As a result, the final concentration of the compound in the cell culture well became 1×, and the DMSO content in the well was 0.1%. In addition to the compound-treated wells described above, cell-containing DMSO control wells were also set. A complete medium containing 0.5% DMSO was added at 20 µL/well. After the mixture was well mixed, the culture plate was incubated in the incubator at 37 °C with 5% CO2 for another 3 h. The medium was then removed from the culture wells, and 50 µL of cell lysis buffer (from Advance ERK phospho-T202/Y204 kit) was added to each well. The mixture was well mixed, incubated for 30 min, and then transferred to a white-bottomed, opaque 96-well assay plate at 16 µL/well, and separately, 16 µL of cell lysis buffer was added to additional wells (serving as blank wells) in the assay plate. After the transfer was completed, 4 µL of p-ERK HTRF antibody mixture (from Advance ERK phospho-T202/Y204 kit) was added to each well of the assay plate, followed by a 4-hour incubation. The HTRF signal values (RLU) were then measured using a microplate reader, and the inhibition rate of the compound against p-ERK levels was calculated as follows: IR(%) = (RLUDMSO - RLUcompound)/(RLUDMSO - RLUblank) × 100%, where RLUDMSO is the average HTRF signal value from the DMSO control well samples, RLU is the average HTRF signal value from the blank well samples, and RLUcompound is the HTRF signal value from the compound-treated well samples. Using an XLfit software, the IR(%) values were plotted against the logarithm of the compound concentrations, and the dose-response curves were fitted using the four-parameter method to calculate the IC50 values.

SMILES | IC50 [nM]
CCn1nc2c(c1-c1cc(C#CCN3CCS(=O)(=O)CC3)cnc1[C@H](C)OC)CC(C)(C)COC(=O)[C@@H]1CCCN(N1)C(=O)[C@@H](NC(=O)[C@H](C(C)C)N(C)C1CCCC1)Cc1nc(cs1)/C=C/2 (atropisomer, axis not shown; (Ra)) [Compound Z58, (2S)-2-(cyclopentyl(methyl)amino)-N-((4^2Z,8^3S,2E,6S)-(Ra)-1^5-(5-(3-(1,1-dioxidothiomorpholine)prop-1-yn-1-yl)-2-((S)-1-methoxyethyl)pyridin-3-yl)-1^1-ethyl-12,12-dimethyl-7,9-dioxo-8^1,8^2,8^3,8^4,8^5,8^6-hexahydro-1^1H-10-oxa-4(4,2)-thiazola-8(1,3)-pyridazina-1(3,4)-pyrazolecyclotridec-2-en-6-yl)-3-methylbutanamide] | 55.7
CO[C@@H](C)c1ncc(C#CCN2CCS(=O)(=O)CC2)cc1-c1c2c(nn1C(C)C)/C=C/c1csc(n1)C[C@H](NC(=O)[C@H](C(C)C)N(C)c1cccc(C)c1)C(=O)N1CCC[C@H](N1)C(=O)OCC(C)(C)C2 (atropisomer, axis not shown; (Ra)) [Compound Z59, (2S)-N-((4^2Z,8^3S,2E,6S)-1^5-(Ra)-(5-(3-(1,1-dioxidothiomorpholino)prop-1-yn-1-y1)-2-((S)-1-methoxyethyl)pyridin-3-yl)-1^1-isopropyl-12,12-dimethyl-7,9-dioxo-8^1,8^2,8^3,8^4,8^5,8^6-hexahydro-1^1H-10-oxa-4(4,2)-thiazola-8(1,3)-pyridazina-1(3,4)-pyrazolocyclotridec-2-en-6-yl)-3-methyl-2-(methyl(m-tolyl)amino)butanamide] | 49.2
CO[C@@H](C)c1ncc(C#CCN2CCS(=O)(=O)CC2)cc1-c1c2c(nn1C(C)C)/C=C/c1csc(n1)C[C@H](NC(=O)[C@H](C(C)C)N(C)c1ccc3ccccc3c1)C(=O)N1CCC[C@H](N1)C(=O)OCC(C)(C)C2 (atropisomer, axis not shown; (Ra)) [Compound Z60] | 261
CO[C@@H](C)c1ncc(C#CCN2CCS(=O)(=O)CC2)cc1-c1c2c(nn1C(C)C)/C=C/c1csc(n1)C[C@H](NC(=O)[C@H](C(C)C)N(C)c1ccc(C)cc1)C(=O)N1CCC[C@H](N1)C(=O)OCC(C)(C)C2 (atropisomer, axis not shown; (Ra)) [Compound Z61, (2S)-N-((4^2Z,8^3S,2E,6S)-1^5-(Ra)-(5-(3-(1,1-dioxidothiomorpholino)prop-1-yn-1-yl)-2-((S)-1-methoxyethyl)pyridin-3-yl)-1^1-isopropyl-12,12-dimethyl-7,9-dioxo-8^1,8^2,8^3,8^4,8^5,8^6-hexahydro-1^1H-10-oxa-4(4,2)-thiazola-8(1,3)-pyridazina-1(3,4)-pyrazolocyclotridec-2-en-6-yl)-3-methyl-2-(methyl(p-tolyl)amino)butanamide] | 69.9
CCn1nc2c(c1-c1cc(C#CCN3CCS(=O)(=O)CC3)cnc1[C@H](C)OC)CC(C)(C)COC(=O)[C@@H]1CCCN(N1)C(=O)[C@@H](NC(=O)[C@H](C(C)C)N(C)c1ccncc1)Cc1nc(cs1)/C=C/2 (atropisomer, axis not shown; (Ra)) [Compound Z122, (2S)-N-((4^2Z,8^3S,2E,6S)-(Ra)-1^5-(5-(3-(1,1-dioxidothiomorpholino)prop-1-yn-1-yl)-2-((S)-1-methoxyethyl)pyridin-3-yl)-1^1-ethyl-12,12-dimethyl-7,9-dioxo-8^1,8^2,8^3,8^4,8^5,8^6-hexahydro-1^1H-10-oxa-4(4,2)-thiazola-8(1,3)-pyridazina-1(3,4)-pyrazolocyclotridec-2-en-6-yl)-3-methyl-2-(methyl(pyridin-4-yl)amino)butanamide] | 181
CCn1nc2c(c1-c1cc(C#CCN3CCS(=O)(=O)CC3)cnc1[C@H](C)OC)CC(C)(C)COC(=O)[C@@H]1CCCN(N1)C(=O)[C@@H](NC(=O)[C@H](C(C)C)N(C)c1cccnc1)Cc1nc(cs1)/C=C/2 (atropisomer, axis not shown; (Ra)) [Compound Z123, (2S)-N-((4^2Z,8^3S,2E,6S)-(Ra)-1^5-(5-(3-(1,1-dioxidothiomorpholino)prop-1-yn-1-yl)-2-((S)-1-methoxyethyl)pyridin-3-yl)-1^1-ethyl-12,12-dimethyl-7,9-dioxo-8^1,8^2,8^3,8^4,8^5,8^6-hexahydro-1^1H-10-oxa-4(4,2)-thiazola-8(1,3)-pyridazina-1(3,4)-pyrazolocyclotridec-2-en-6-yl)-3-methyl-2-(methyl(pyridin-3-yl)amino)butanamide] | 4.63
CCn1nc2c(c1-c1cc(C#CCN3CCS(=O)(=O)CC3)cnc1[C@H](C)OC)CC(C)(C)COC(=O)[C@@H]1CCCN(N1)C(=O)[C@@H](NC(=O)[C@H](C(C)C)N(C)c1ccc(F)cc1)Cc1nc(cs1)/C=C/2 (atropisomer, axis not shown; (Ra)) [Compound Z124, (2S)-N-((4^2Z,8^3S,2E,6S)-(Ra)-1^5-(5-(3-(1,1-dioxidomorpholinyl)prop-1-yn-1-yl)-2-((S)-1-methoxyethyl)pyridin-3-yl)-1^1-ethyl-12,12-dimethyl-7,9-dioxo-8^1,8^2,8^4,8^5,8^6-hexahydro-1^1H-10-oxa-4(4,2)-thiazola-8(1,3)-pyridazina-1(3,4)-pyrrolacyclotridecaphan-2-en-6-yl)-2-[(4-fluorophenyl)(methyl)amino]-3-methylbutanamide] | 2.05
CCn1nc2c(c1-c1cc(C#CCN3CCS(=O)(=O)CC3)cnc1[C@H](C)OC)CC(C)(C)COC(=O)[C@@H]1CCCN(N1)C(=O)[C@@H](NC(=O)[C@@H](Cc1ccccc1)C(C)C)Cc1nc(cs1)/C=C/2 (atropisomer, axis not shown; (Ra)) [Compound Z127, (2S)-2-benzyl-N-((4^2Z,8^3S,2E,6S)-(Ra)-1^5-(5-(3-(1,1-dioxidothiomorpholino)prop-1-yn-1-yl)-2-((S)-1-methoxyethyl)pyridin-3-yl)-1^1-ethyl-12,12-dimethyl-7,9-dioxo-8^1,8^2,8^3,8^4,8^5,8^6-hexahydro-1^1H-10-oxa-4(4,2)-thiazola-8(1,3)-pyridazina-1(3,4)-pyrrolacyclotridecaphan-2-en-6-yl)-3-methylbutanamide] | 104
CO[C@@H](C)c1ncc(C#CCN2CCS(=O)(=O)CC2)cc1-c1c2c(nn1C(C)C)/C=C/c1csc(n1)C[C@H](NC(=O)[C@H](C(C)C)N(C)C(=O)Cc1cccc3ccsc13)C(=O)N1CCC[C@H](N1)C(=O)OCC(C)(C)C2 (single isomer, unassigned) [Compound Z120] | 513
COC[C@H]1CCN1C(=O)N[C@H]1Cc2nc(cs2)/C=C/c2nn(C(C)C)c(-c3cc(C#CCN4CCS(=O)(=O)CC4)cnc3[C@H](C)OC)c2CC(C)(C)COC(=O)[C@@H]2CCCN(N2)C1=O [Compound Z41, (2R)-N-((4^2Z,8^3S,2E,6S)-1^5-(5-(3-(1,1-dioxidothiomorpholino)prop-1-yn-1-yl)-2-((S)-1-methoxyethyl)pyridin-3-yl)-1^1-isopropyl-12,12-dimethyl-7,9-dioxo-8^1,8^2,8^3,8^4,8^5,,8^6-hexahydro-1^1H-10-oxa-4(4,2)-thiazola-8(1,3)-pyridazina-1(3,4)-pyrrolacyclotridecaphan-2-en-6-yl)-2-(methoxymethyl)azetidine-1-carboxamide] | 356
